According to PubChem BioAssay AID256 (DTP/NCI, 2004):
Values joined by “and” are separate entries in the source; they are usually repeats but may differ in a detail not shown here. Equal entries are not always repeated. Inconclusive results and toxic doses are left out.

Tested on: CD2F1 mice, L1210 leukemia ip, survival T/C
Test: NCI In Vivo Anticancer Drug Screen. Data for tumor model L1210 Leukemia (intraperitoneal) in CD2F1 (CDF1) mice
Settings: higher = longer survival
Procedure, shortened: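 Tumor-bearing mice (transplanted tumor) were split into treated and vehicle control groups, and the measured endpoint of each treated group was divided by that of its vehicle controls.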

[1] = endpoint: mean survival time, dose: 100.0 mg/kg/injection, schedule: Q04DX003 (ip), vehicle: other
[2] = endpoint: mean survival time, dose: 200.0 mg/kg/injection, schedule: Q04DX003 (ip), vehicle: other
[3] = endpoint: mean survival time, dose: 400.0 mg/kg/injection, schedule: Q04DX003 (ip), vehicle: other
[4] = endpoint: mean survival time, dose: 100.0 mg/kg/injection, schedule: Q04DX003 (ip), vehicle: saline with Tween-80
[5] = endpoint: mean survival time, dose: 200.0 mg/kg/injection, schedule: Q04DX003 (ip), vehicle: saline with Tween-80
[6] = endpoint: mean survival time, dose: 400.0 mg/kg/injection, schedule: Q04DX003 (ip), vehicle: saline with Tween-80

With `O=C1C(n2ccc(=O)[nH]c2=O)CCN1CCO` (centres undefined) the T/C [1] was 102 % of control, the T/C [2] was 102 % of control and the T/C [3] was 96 % of control.
In the case of `O=C(C=C(C(F)(F)Cl)C(F)(F)Cl)c1cccs1`, the T/C (endpoint: mean survival time, dose: 5.0 mg/kg/injection, schedule: Q04DX003 (ip), vehicle: saline) was 98 % of control, the T/C (endpoint: mean survival time, dose: 10.0 mg/kg/injection, schedule: Q04DX003 (ip), vehicle: saline) was 104 % of control and the T/C (endpoint: mean survival time, dose: 20.0 mg/kg/injection, schedule: Q04DX003 (ip), vehicle: saline) was 103 % of control.
`CCCC(CC(=O)O)(C(=O)O)c1ccccc1` (centres undefined) was tested, and the T/C (endpoint: mean survival time, dose: 100.0 mg/kg/injection, schedule: Q01DX009 (ip), vehicle: other) was 108 % of control, the T/C [1] was 93 % of control and the T/C (endpoint: mean survival time, dose: 200.0 mg/kg/injection, schedule: Q01DX009 (ip), vehicle: other) was 91 % of control. The T/C [2] was 97 % of control, the T/C (endpoint: mean survival time, dose: 400.0 mg/kg/injection, schedule: Q01DX009 (ip), vehicle: other) was 91 % of control and the T/C [3] was 98 % of control.
With `CCCCNS(=O)(=O)c1cn(CCCC)c(=O)[nH]c1=O` the T/C (endpoint: mean survival time, dose: 37.5 mg/kg/injection, schedule: Q01DX001 (ip), vehicle: saline with Tween-80) was 100 % of control, the T/C (endpoint: mean survival time, dose: 150.0 mg/kg/injection, schedule: Q01DX001 (ip), vehicle: saline with Tween-80) was 96 % of control and the T/C (endpoint: mean survival time, dose: 175.0 mg/kg/injection, schedule: Q01DX001 (ip), vehicle: saline with Tween-80) was 100 % of control.
In the case of `OCC1OC(n2ccn(C3OC(CO)C(O)C3O)c2=S)C(O)C1O` (centres undefined), the T/C (endpoint: mean survival time, dose: 12.5 mg/kg/injection, schedule: Q01DX005 (ip), vehicle: water) was 98 % of control, the T/C (endpoint: mean survival time, dose: 25.0 mg/kg/injection, schedule: Q01DX005 (ip), vehicle: water) was 106 % of control and the T/C (endpoint: mean survival time, dose: 50.0 mg/kg/injection, schedule: Q01DX005 (ip), vehicle: water) was 96 % of control. The T/C (endpoint: mean survival time, dose: 100.0 mg/kg/injection, schedule: Q01DX005 (ip), vehicle: water) was 98 % of control and the T/C (endpoint: mean survival time, dose: 200.0 mg/kg/injection, schedule: Q01DX005 (ip), vehicle: water) was 102 % of control.
`O=CC(C=O)[N+](=O)[O-]` was tested, and the T/C (endpoint: mean survival time, dose: 100.0 mg/kg/injection, schedule: Q01DX001 (ip), vehicle: saline) was 103 % of control, the T/C (endpoint: mean survival time, dose: 200.0 mg/kg/injection, schedule: Q01DX001 (ip), vehicle: saline) was 103 % of control and the T/C (endpoint: mean survival time, dose: 400.0 mg/kg/injection, schedule: Q01DX001 (ip), vehicle: saline) was 97 % of control.
For `CC(C)C1=CCC2C(=C1)CCC1C(C)(C(N)=O)CCCC21C` (centres undefined), the T/C [4] was 95 % of control, the T/C [5] was 88 % of control and the T/C [6] was 90 % of control.
With `COC1=C2CCCC2=[N+]2CCCCC2C1` (centres undefined) the T/C (endpoint: mean survival time, dose: 100.0 mg/kg/injection, schedule: Q04DX003 (ip), vehicle: saline) was 96 % of control and the T/C (endpoint: mean survival time, dose: 200.0 mg/kg/injection, schedule: Q04DX003 (ip), vehicle: saline) was 96 % of control.
`NCC(OC1CCCCC1)C(Cl)(Cl)Cl` (centres undefined) was tested, and the T/C [4] was 101 % of control and the T/C [5] was 93 % of control.
`OC1(O)CCN(Cc2ccccc2)CC1` was tested, and the T/C (endpoint: mean survival time, dose: 100.0 mg/kg/injection, schedule: Q04DX003 (ip), vehicle: acetone) was 94 % of control, the T/C (endpoint: mean survival time, dose: 200.0 mg/kg/injection, schedule: Q04DX003 (ip), vehicle: acetone) was 96 % of control and the T/C (endpoint: mean survival time, dose: 400.0 mg/kg/injection, schedule: Q04DX003 (ip), vehicle: acetone) was 94 % of control.
In the case of `O=S(=O)(O)Sc1ncnc2nc[nH]c12`, the T/C (endpoint: mean survival time, dose: 10.0 mg/kg/injection, schedule: Q01DX009 (ip), vehicle: saline) was 117 % of control, the T/C (endpoint: mean survival time, dose: 20.0 mg/kg/injection, schedule: Q01DX009 (ip), vehicle: saline) was 112 % of control and the T/C (endpoint: mean survival time, dose: 320.0 mg/kg/injection, schedule: Q01DX009 (ip), vehicle: saline) was 107 % of control. For the same compound, the T/C (endpoint: median survival time, dose: 37.5 mg/kg/injection, schedule: Q04DX003 (ip), vehicle: saline) was 119 % of control, the T/C (endpoint: median survival time, dose: 100.0 mg/kg/injection, schedule: Q01DX009 (ip), vehicle: saline) was 182 % of control and the T/C (endpoint: median survival time, dose: 200.0 mg/kg/injection, schedule: Q01DX009 (ip), vehicle: saline) was 154 % of control. The T/C (endpoint: median survival time, dose: 300.0 mg/kg/injection, schedule: Q04DX003 (ip), vehicle: saline) was 166 % of control.
In the case of `Oc1ccc(-c2ccc(O)cc2)cc1`, the T/C (endpoint: mean survival time, dose: 50.0 mg/kg/injection, schedule: Q04DX003 (ip), vehicle: saline with Tween-80) was 100 % of control, the T/C [4] was 101 % of control and 107 % of control and the T/C [5] was 109 % of control. For the same compound, the T/C [6] was 121 % of control.
With `S=c1nccc[nH]1.[Pt]` the T/C (endpoint: mean survival time, dose: 3.13 mg/kg/injection, schedule: Q04DX003 (ip), vehicle: distilled water + Tween-80) was 98 % of control, the T/C (endpoint: mean survival time, dose: 6.25 mg/kg/injection, schedule: Q04DX003 (ip), vehicle: distilled water + Tween-80) was 103 % of control and the T/C (endpoint: mean survival time, dose: 12.5 mg/kg/injection, schedule: Q04DX003 (ip), vehicle: distilled water + Tween-80) was 98 % of control. For the same compound, the T/C (endpoint: mean survival time, dose: 25.0 mg/kg/injection, schedule: Q04DX003 (ip), vehicle: distilled water + Tween-80) was 97 % of control, the T/C (endpoint: mean survival time, dose: 50.0 mg/kg/injection, schedule: Q04DX003 (ip), vehicle: distilled water + Tween-80) was 90 % of control and the T/C (endpoint: mean survival time, dose: 100.0 mg/kg/injection, schedule: Q04DX003 (ip), vehicle: distilled water + Tween-80) was 98 % of control. For the same compound, the T/C (endpoint: mean survival time, dose: 200.0 mg/kg/injection, schedule: Q04DX003 (ip), vehicle: distilled water + Tween-80) was 98 % of control.
For `COCc1nnc(N)c(C(N)=O)n1`, the T/C (endpoint: mean survival time, dose: 100.0 mg/kg/injection, schedule: Q01DX001 (ip), vehicle: carboxymethylcellulose (CMC)) was 100 % of control, the T/C (endpoint: mean survival time, dose: 200.0 mg/kg/injection, schedule: Q01DX001 (ip), vehicle: carboxymethylcellulose (CMC)) was 100 % of control and the T/C (endpoint: mean survival time, dose: 400.0 mg/kg/injection, schedule: Q01DX001 (ip), vehicle: carboxymethylcellulose (CMC)) was 89 % of control.
